Experimental data published in US20240239759A1, “ISOXAZOLINE COMPOSITIONS AND THEIR USE AS ANTIPARASITICS” (Intervet Inc., priority 2007, published 2024).
Read-outs that look alike come from different tables or passages of the source.

Tested on: cat fleas (Ctenocephalides felis)
Assay: Efficacy of various isoxazolines against cat fleas on mice (Example 3)
Assay type: in vivo
Settings: mice, oral 20 mg/kg, infested 1 hr after treatment; for pest or weed control at 20 mg/kg: Ctenocephalides felis, po, read-out: Flea inhibition relative to negative control
Experimental: In this experiment, mice were randomly assigned to a treatment group or a negative control (untreated) group. Each group consisted of three mice. The mice in the treatment groups were orally administered 20 mg/kg bodyweight of various isoxazolines dissolved in 7% DMF-premix and 93% purified water (aqua ad injectabilia). The application volume of these treatments was 0.01 mL/g bodyweight. One hour after treatment, each mouse was sedated and generally infested (whole body) with 30 vital, adult fleas (C. felis). To achieve this, the sedated mice were placed into an infestation-jar, and the fleas were placed directly onto the fur. After approximately 30 minutes of feeding, fleas were recovered from the mice. Assessments for inhibition and mortality were conducted 1 hr, 24 hr, and 48 hr after each infestation. The efficacy was calculated as the percentage of inhibited fleas in the treatment groups relative to the negative control group.

SMILES | pest or weed control at 20 mg/kg (1 h, 1 hr after infestation) | pest or weed control at 20 mg/kg (24 h, 24 hr after infestation) | pest or weed control at 20 mg/kg (48 h, 48 hr after infestation) | Flea inhibition relative to negative control (1 hr after infestation)
CO/N=C\NC(=O)c1ccc(C2=NO[C@@](c3cc(Cl)cc(Cl)c3)(C(F)(F)F)C2)cc1C [Compound 5-36] | 45.7% | 99% | 99% | 
CON=CNC(=O)c1ccc(C2=NOC(c3cc(Cl)c(Cl)c(Cl)c3)(C(F)(F)F)C2)cc1C (stereo not shown) [Compound 5-33] | 0% | 100% | 100% | 
COC(=O)N(Cc1ccccn1)C(=O)c1ccc(C2=NOC(c3cc(Cl)cc(Cl)c3)(C(F)(F)F)C2)cc1C (stereo not shown) [Compound 5-19] | 0% | 90% | 94.4% | 
COC(=O)N(C(=O)c1ccc(C2=NOC(c3cc(Cl)cc(Cl)c3)(C(F)(F)F)C2)cc1C)c1ncc(Cl)cn1 (stereo not shown) [Compound 5-48] |  | 91.1% | 91.1% | 
C#CCNC(=O)CNC(=O)c1ccc(C2=NOC(c3cc(Cl)cc(Cl)c3)(C(F)(F)F)C2)cc1C (stereo not shown) [Compound 5-67] | 80% | 100% | 100% | 
COC(=O)N(COCC(F)(F)F)C(=O)c1ccc(C2=NOC(c3cc(Cl)cc(Cl)c3)(C(F)(F)F)C2)cc1C (stereo not shown) [Compound 5-25] | 0% | 75.6% | 84.4% | 
CCN(C(=O)c1ccc(C2=NOC(c3cc(Cl)cc(Cl)c3)(C(F)(F)F)C2)cc1C)c1ncc(Cl)cn1 (stereo not shown) [Compound 5-21] | 0% | 75.6% | 77.8% | 
Cc1cc(C2=NOC(c3cc(Cl)cc(Cl)c3)(C(F)(F)F)C2)ccc1C(=O)N(C(=O)C1CC1)c1ncc(Cl)cn1 (stereo not shown) [Compound 5-24] | 0% | 84.4% | 86.7% | 
Cc1cc(C2=NOC(c3cc(Cl)cc(Cl)c3)(C(F)(F)F)C2)ccc1C(=O)NC(C)C(=O)NCC(F)(F)F (stereo not shown) [Compound 5-54] |  |  |  | 5-47 (0%), 5-54 (0%),
Cc1cc(C2=NOC(CCl)(c3cc(Cl)cc(Cl)c3)C2)ccc1C(=O)NCc1ccccn1 (stereo not shown) [Compound 5-13] | 16.7% | 18.9% | 18.9% | 
O=C(CNC(=O)c1ccc(C2=NOC(c3cc(C(F)(F)F)cc(C(F)(F)F)c3)(C(F)(F)F)C2)cc1)NCC(F)(F)F (stereo not shown) [Compound 5-34] | 2.3% | 96.6% | 96.6% | 
COC(=O)N(C)C(=O)c1ccc(C2=NOC(c3cc(Cl)cc(Cl)c3)(C(F)(F)F)C2)cc1C (stereo not shown) [Compound 5-16] | 0% | 46.7% | 54.4% | 
COC(=O)N(C(=O)c1ccc(C2=NOC(c3cc(Cl)cc(Cl)c3)(C(F)(F)F)C2)cc1C)c1cnc(Cl)cn1 (stereo not shown) [Compound 5-17] | 0% | 36.7% | 41.1% | 
Cc1cc(C2=NOC(c3cc(Cl)cc(Cl)c3)(C(F)(F)F)C2)ccc1C(=O)NC1CCCO1 (stereo not shown) [Compound 5-64] | 50% | 97.8% | 97.8% | 
CC(=O)N(C(=O)c1ccc(C2=NOC(c3cc(Cl)cc(Cl)c3)(C(F)(F)F)C2)cc1C)c1ncc(C#N)cn1 (stereo not shown) [Compound 5-30] | 2.2% | 67.8% | 68.9% | 
Cc1cc(C2=NOC(c3cc(Cl)c(F)c(C(F)(F)F)c3)(C(F)(F)F)C2)ccc1C(=O)NCC(=O)NCC(F)(F)F (stereo not shown) [Compound 5-41] | 0% | 94.3% | 95.6% | 
Cc1cc(C2=NOC(c3cc(Cl)cc(Cl)c3)(C(F)(F)F)C2)ccc1C(=O)N(C(=O)C(C)C)c1ncc(C#N)cn1 (stereo not shown) [Compound 5-18] | 0% | 54.4% | 54.4% | 
CCO/N=C\NC(=O)c1ccc(C2=NOC(c3cc(Cl)cc(Cl)c3)(C(F)(F)F)C2)cc1C (stereo not shown) [Compound 5-50] |  |  |  | (27.7%)
COC(=O)N(C(=O)c1ccc(C2=NOC(c3cc(Cl)cc(Cl)c3)(C(F)(F)F)C2)cc1C)c1ncc(C#N)cn1 (stereo not shown) [Compound 5-31] | 0% | 65.6% | 65.6% | 
